Test results as given in patent US8637685B2, “Schweinfurthin analogues” (University of Iowa Research Foundation, priority 2008, dated 2014).
Blank lines part the entries; values can stand above or below the molecule they belong to.

Columns and labels:
[1] = Fluorescence properties of target compounds (Table 1); type: physicochemical; settings: for Absorbtion Maximum / Emission Maximum / Extinction Coefficient: Concentration 50 uM; for Extinction Coefficient: in M-1 cm-1 (unit assumed)
Text: This shift to the green region for the fluorescence emission allows cellular studies on these compounds without any interference from autofluroescence.

[2] = tested on: SF-295 vs. A549 cell lines; test: Test C three pronged testing scheme for schweinfurthin-like activity; type: cell-based, human; settings: for schweinfurthin-like activity: three pronged scheme: MTT SF-295, MTT A549, morphology
Text: (§1) The National Cancer Institute 60 human tumor cell line anti-cancer assay has been used for indicating the schweinfurthin-like activity of various analogues. Additionally, a three pronged approach that allows a more rapid turn around can be used. This three pronged testing scheme involves 1) MTT assay in schweinfurthin sensitive human glioma derived SF-295 cell line; 2) MTT assay in the schweinfurthin resistant human non-small cell lung cancer derived cell line A549; and 3) microscopic observation of cell morphology changes at 24 and 48 hours. Compounds displaying schweinfurthin-like activity show a dramatic change in cell morphology at concentrations consistent with anti-cancer activity. This three pronged testing scheme is a very simple method that has successfully identified compounds with and without schweinfurthin-like activity. Accordingly, in one embodiment the invention provides a method for identifying a compound with schweinfurthin-like activity comprising, subjecting the compound to 1) an MTT assay in a schweinfurthin sensitive human glioma derived SF-295 cell line; 2) an MTT assay in the schweinfurthin resistant human non-small cell lung cancer derived cell line A549; and 3) a microscopic observation of cell morphology changes at one or more preselected time points (e.g. at about 24 or 48 hours).

SF-295 cell line = test: Test C MTT assay in schweinfurthin sensitive SF-295 cell line; type: cell-based, human
Text: as §1

A549 cell line = test: Test C MTT assay in schweinfurthin resistant A549 cell line; type: cell-based, human; settings: A549 lung cancer line
Text: as §1

SF-295 cells = test: Test A cellular morphology (phalloidin/DAPI staining), SF-295; type: cell-based, human
Experimental: (§2) Cell Culture—SF-295 cells were maintained in RPMI 1640 supplemented with 10% fetal calf serum, and penstreptamycin. A-549 cells were maintained in F-12 media with 10% fetal calf serum and penstreptamycin. Both cell lines were incubated at 37° C. and 5% CO2.
(§3) Cellular Morphology—Cells were plated on sterilized coverslips in 6-well plates and allowed to reach 65% confluency before treatment with indicated compounds. At the conclusion of the treatment interval, cells were rinsed and fixed with 3.7% formaldehyde for 15 minutes. After subsequent rinses in PBS, cells were permeabilized with 0.2% triton X-100 for 4 minutes and rinsed in PBS. Cells were then incubated with 1% BSA for 30 minutes before incubation with phalloidin stain (Molecular Probes, Eugene, Oreg.) for 20 minutes. At the completion of staining interval, cells were rinsed and mounted using Vectashield mounting media containing DAPI (Vector laboratories, Inc., Burlingame, Calif.). Slides were imaged using a Bio-Rad Multi-photon microscope and processed using Image-J software.

A-549 cells = test: Test A cellular morphology (phalloidin/DAPI staining), A-549; type: cell-based, human
Experimental: as §2, §3

[3] = Compound stability (no method given); type: physicochemical

Absorbtion Maximum [1]: 426
Emission Maximum [1]: 593
Extinction Coefficient [1]: 26500
Structure (SMILES): COc1cc(/C=C/c2cc(O)c(/C=C/c3ccc([N+](=O)[O-])cc3)c(O)c2)cc2c1O[C@]1(C)CC[C@@H](O)C(C)(C)[C@H]1C2 [Compound 219]
stokes shift compared with amine compounds 227, 232 and 237 [1]: larger stokes shifts than the amine compounds
schweinfurthin-like activity [2]: still shows the significant drop in activity in the A549 line vs. the SF-295 line
activity relative to standard 3-deoxyschweinfurthin B (SF-295 cell line; SF-295 cell line): almost identical activity to the standard 3-deoxyschweinfurthin B
potency rank among compounds tested (SF-295 cell line; Test C scheme): most potent of these compounds
potency relative to 3-deoxyschweinfurthin B (A549 cell line): almost an order of magnitude more potent than 3-deoxyschweinfurthin B

Structure (SMILES): COc1cc(/C=C/c2cc3c(c(OC)c2)O[C@]2(C)C[C@@H](O)[C@@H](O)C(C)(C)[C@H]2C3)cc(O)c1/C=C/c1ccc(N)cc1 [Compound 237]
potency relative to 3-deoxyschweinfurthin B ([2]; cell line not specified): neither of the amine substituted analogues (227 and 237) were more potent than 3-deoxyschweinfurthin B
activity relative to 3-deoxy compound 227 ([2]; dihydroxylated A-ring vs. 3-deoxy): not significantly more active than the 3-deoxy compound 227
schweinfurthin-like activity [2]: did show all of the hall marks of schweinfurthin like activity

Structure (SMILES): C[C@@H](N)[C@H]1CC[C@H](C(=O)Nc2ccncc2)CC1 [Compound Y-27632]
cell morphology (SF-295 cells; 10 μM): caused jagged F-actin at the periphery and long slender projections to form
cell morphology (A-549 cells; 10 μM): induces ruffled F-actin at the edges of the A-549 cells

Structure (SMILES): COc1cc(C=Cc2cc(O)c(CC=C(C)CCC=C(C)C)c(O)c2)cc2c1OC1(C)CCC(O)C(C)(C)C1C2 (stereo not shown) [3-deoxyschweinfurthin B]
cell morphology (SF-295 cells; 500 nM, 24 hours): morphologic characteristics similar to control cells
cell morphology (SF-295 cells; 500 nM, 48 hours): characteristic changes in cell morphology
cell morphology changes induced by schweinfurthins (SF-295 cells; time points beyond 24 hours): a decrease in cell area and a reduction in F-actin
cell morphology (A-549 cells; 500 nM, 24 hours or 48 hours): does not induce a morphologic change

Absorbtion Maximum [1]: 429
Emission Maximum [1]: 557
Extinction Coefficient [1]: 17902
stability relative to the parent resorcinol [3]: much improved stability
Structure (SMILES): COc1cc(/C=C/c2cc3c(c(OC)c2)O[C@]2(C)CC[C@@H](O)C(C)(C)[C@H]2C3)cc(O)c1/C=C/c1ccc([N+](=O)[O-])cc1 [Compound 225]
stokes shift compared with amine compounds 227, 232 and 237 [1]: larger stokes shifts than the amine compounds
schweinfurthin-like activity [2]: displayed activity as expected
activity relative to the parent resorcinol (SF-295 cell line; assay not specified): only slightly diminished activity

Structure (SMILES): COc1cc(/C=C/c2cc3c(c(OC)c2)O[C@]2(C)C[C@@H](O)[C@@H](O)C(C)(C)[C@H]2C3)cc(O)c1/C=C/c1ccc([N+](=O)[O-])cc1 [Compound 235]
stokes shift compared with amine compounds 227, 232 and 237 [1]: larger stokes shifts than the amine compounds
